Measured values published in ChEMBL document CHEMBL1125424 (J Med Chem, 1992).

Experiments:
Substance-P receptor = Substance-P receptor (Rattus norvegicus, UniProt P14600); test: Inhibition of Tachykinin receptor 1 of rat forebrain tissue
Rattus norvegicus [1] = test: cIn vivo SP antagonist activity in rats using SP-induced salivation and paw edema assays; format: functional
Cavia porcellus = species: Cavia porcellus; test: pA2 was evaluated from schild analyses of the guinea pig ileum contractility data; format: functional; conditions: read-out: pA2 (converted)
Rattus norvegicus [2] = test: In vivo SP antagonist activity in rats using SP-induced salivation and paw edema assays; format: functional

Substance-P receptor, sequence (P14600 whole entry): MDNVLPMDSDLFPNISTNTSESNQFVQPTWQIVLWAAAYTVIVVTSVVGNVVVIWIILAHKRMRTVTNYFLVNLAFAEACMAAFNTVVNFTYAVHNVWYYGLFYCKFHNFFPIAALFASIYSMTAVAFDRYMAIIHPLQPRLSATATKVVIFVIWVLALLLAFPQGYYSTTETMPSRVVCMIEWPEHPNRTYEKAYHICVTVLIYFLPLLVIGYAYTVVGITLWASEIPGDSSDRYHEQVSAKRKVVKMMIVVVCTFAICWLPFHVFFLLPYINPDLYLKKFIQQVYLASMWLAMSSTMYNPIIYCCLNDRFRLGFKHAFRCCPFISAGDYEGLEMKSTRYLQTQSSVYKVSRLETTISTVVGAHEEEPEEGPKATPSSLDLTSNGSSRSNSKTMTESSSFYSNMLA

Row | SMILES | IC50 (Substance-P receptor) [nM] | other results
1 | CCn1c(/C=C/C=C2\N(C)c3ccccc3C2(C)C)[n+](CCO)c2cc3ccccc3cc21 | 450 | –
2 | CCn1c(/C=C/C=C2\N(C)c3ccccc3C2(C)C)[n+](CCOC(C)=O)c2cc3ccccc3cc21 | 410 | –
3 | CCn1c2[n+](c3cc4ccccc4cc31)C(C)CC2=C/C=C1\N(C)c2ccc3ccccc3c2C1(C)C (stereo not given) | 310 | –
4 | CCn1c(/C=C/C=C2\N(C)c3ccccc3C2(C)C)[n+](CC)c2nc3ccccc3nc21.[Cl-] | – | ED50 (Rattus norvegicus [1]): 1.73 mg/kg; Kb (Cavia porcellus): 58.9 nM
5 | CCN1/C(=C\C=C\c2n(CC)c3cc4ccccc4cc3[n+]2CC)C(C)(C)c2ccccc21 | 360 | –
6 | CCn1c(/C=C/C=C2\N(C)c3ccccc3C2(C)C)[n+](CC)c2cc3ccccc3cc21.[Cl-] | 390 | Kb (Cavia porcellus): 35.5 nM; ED50 (Rattus norvegicus [2]): 0.48 mg/kg

Further lines, with some results ahead:

Row | IC50 (Substance-P receptor) [nM] | SMILES | other results
7 | 1300 | CCN1/C(=C\C=C2/CCC[n+]3c2n(CC)c2cc4ccccc4cc23)Sc2ccccc21 | –
8 | 790 | CCn1c2[n+](c3cc4ccccc4cc31)CCC2=C/C=C1\N(C)c2ccccc2C1(C)C | –
9 | 310 | CCN1/C(=C\C=C\c2n(CC)c3cc4ccccc4cc3[n+]2CC)Oc2ccccc21 | –
10 | 320 | CCN1/C(=C\C=C\c2n(CC)c3cc4ccccc4cc3[n+]2CC)Sc2ccccc21 | –
11 | 180 | CCN1/C(=C\C=C2CC(C)[n+]3c2n(CC)c2cc4ccccc4cc23)Sc2ccccc21 (stereo not given) | –
12 | 4200 | CCN1/C(=C\C=C2CC[n+]3c2n(CC)c2cc4ccccc4cc23)Oc2ccccc21 | –
